Columns and labels:
Format in all cases: biochemical
TANK-binding kinase 1 = target: T1, TANK-binding kinase 1 (Homo sapiens, UniProt Q9UHD2); experiment: single-point panel of […] kinases at […]; conditions: read-out: % inhibition at 1 μM
T1 sequence (Q9UHD2 1-729): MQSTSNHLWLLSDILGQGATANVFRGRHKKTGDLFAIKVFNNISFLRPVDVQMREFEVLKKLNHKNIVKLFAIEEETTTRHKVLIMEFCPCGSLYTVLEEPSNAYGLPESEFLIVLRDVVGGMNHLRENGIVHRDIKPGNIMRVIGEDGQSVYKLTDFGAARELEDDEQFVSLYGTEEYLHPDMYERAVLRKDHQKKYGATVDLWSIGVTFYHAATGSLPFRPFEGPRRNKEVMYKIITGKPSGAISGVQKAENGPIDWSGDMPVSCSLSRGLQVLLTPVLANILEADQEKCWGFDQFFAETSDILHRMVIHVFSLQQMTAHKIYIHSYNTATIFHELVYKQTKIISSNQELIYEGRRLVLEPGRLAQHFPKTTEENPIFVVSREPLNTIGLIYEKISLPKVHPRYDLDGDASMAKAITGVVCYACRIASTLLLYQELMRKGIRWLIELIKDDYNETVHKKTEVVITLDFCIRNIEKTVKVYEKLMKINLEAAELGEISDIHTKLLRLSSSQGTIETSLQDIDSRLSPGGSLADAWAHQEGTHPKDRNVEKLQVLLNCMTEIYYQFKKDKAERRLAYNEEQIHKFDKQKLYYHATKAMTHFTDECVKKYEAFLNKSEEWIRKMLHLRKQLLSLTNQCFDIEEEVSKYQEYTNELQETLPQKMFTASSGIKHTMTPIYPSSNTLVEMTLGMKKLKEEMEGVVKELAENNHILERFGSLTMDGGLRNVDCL

AMPK = AMPK (Homo sapiens, UniProt P54646); experiment: single-point panel of […] kinases at […]; conditions: read-out: % inhibition at 1 μM
[1] = target: T2, ULK1 (unc-51–like autophagy activating kinase 1) (Homo sapiens, UniProt O75385); experiment: single-point kinase panel at […]; conditions: read-out: % inhibition at 1 μM
T2 sequence (O75385 1-1050): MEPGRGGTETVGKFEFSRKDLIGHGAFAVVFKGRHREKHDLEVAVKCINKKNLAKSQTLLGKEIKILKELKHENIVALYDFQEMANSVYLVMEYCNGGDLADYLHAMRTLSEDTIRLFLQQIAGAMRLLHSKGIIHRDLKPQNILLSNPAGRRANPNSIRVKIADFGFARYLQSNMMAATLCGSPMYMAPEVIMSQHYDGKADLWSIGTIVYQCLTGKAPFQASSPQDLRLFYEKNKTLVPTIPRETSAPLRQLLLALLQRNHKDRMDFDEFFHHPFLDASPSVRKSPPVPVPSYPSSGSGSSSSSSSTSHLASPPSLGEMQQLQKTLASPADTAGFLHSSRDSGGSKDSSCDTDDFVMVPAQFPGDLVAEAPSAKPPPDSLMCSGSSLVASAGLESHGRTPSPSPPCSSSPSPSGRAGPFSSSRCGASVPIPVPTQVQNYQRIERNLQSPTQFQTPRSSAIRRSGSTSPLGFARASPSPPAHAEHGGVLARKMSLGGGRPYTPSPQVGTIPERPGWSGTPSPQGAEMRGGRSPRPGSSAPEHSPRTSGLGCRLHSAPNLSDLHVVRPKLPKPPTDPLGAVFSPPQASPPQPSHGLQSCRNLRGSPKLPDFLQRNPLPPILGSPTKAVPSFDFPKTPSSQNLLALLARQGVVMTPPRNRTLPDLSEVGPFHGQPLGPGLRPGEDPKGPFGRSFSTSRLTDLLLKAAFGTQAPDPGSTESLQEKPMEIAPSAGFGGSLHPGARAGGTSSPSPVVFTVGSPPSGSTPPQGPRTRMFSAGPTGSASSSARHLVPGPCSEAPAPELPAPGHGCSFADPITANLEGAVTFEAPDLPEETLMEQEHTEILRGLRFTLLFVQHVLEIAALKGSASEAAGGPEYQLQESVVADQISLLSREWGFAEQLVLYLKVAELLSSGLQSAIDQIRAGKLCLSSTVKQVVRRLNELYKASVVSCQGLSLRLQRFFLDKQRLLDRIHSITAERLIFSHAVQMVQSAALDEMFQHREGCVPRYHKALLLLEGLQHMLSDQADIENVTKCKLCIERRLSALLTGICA

ULK2 = target: T3, ULK2 (Homo sapiens, UniProt Q8IYT8); experiment: single-point kinase panel at […]
T3 sequence (Q8IYT8 1-1036): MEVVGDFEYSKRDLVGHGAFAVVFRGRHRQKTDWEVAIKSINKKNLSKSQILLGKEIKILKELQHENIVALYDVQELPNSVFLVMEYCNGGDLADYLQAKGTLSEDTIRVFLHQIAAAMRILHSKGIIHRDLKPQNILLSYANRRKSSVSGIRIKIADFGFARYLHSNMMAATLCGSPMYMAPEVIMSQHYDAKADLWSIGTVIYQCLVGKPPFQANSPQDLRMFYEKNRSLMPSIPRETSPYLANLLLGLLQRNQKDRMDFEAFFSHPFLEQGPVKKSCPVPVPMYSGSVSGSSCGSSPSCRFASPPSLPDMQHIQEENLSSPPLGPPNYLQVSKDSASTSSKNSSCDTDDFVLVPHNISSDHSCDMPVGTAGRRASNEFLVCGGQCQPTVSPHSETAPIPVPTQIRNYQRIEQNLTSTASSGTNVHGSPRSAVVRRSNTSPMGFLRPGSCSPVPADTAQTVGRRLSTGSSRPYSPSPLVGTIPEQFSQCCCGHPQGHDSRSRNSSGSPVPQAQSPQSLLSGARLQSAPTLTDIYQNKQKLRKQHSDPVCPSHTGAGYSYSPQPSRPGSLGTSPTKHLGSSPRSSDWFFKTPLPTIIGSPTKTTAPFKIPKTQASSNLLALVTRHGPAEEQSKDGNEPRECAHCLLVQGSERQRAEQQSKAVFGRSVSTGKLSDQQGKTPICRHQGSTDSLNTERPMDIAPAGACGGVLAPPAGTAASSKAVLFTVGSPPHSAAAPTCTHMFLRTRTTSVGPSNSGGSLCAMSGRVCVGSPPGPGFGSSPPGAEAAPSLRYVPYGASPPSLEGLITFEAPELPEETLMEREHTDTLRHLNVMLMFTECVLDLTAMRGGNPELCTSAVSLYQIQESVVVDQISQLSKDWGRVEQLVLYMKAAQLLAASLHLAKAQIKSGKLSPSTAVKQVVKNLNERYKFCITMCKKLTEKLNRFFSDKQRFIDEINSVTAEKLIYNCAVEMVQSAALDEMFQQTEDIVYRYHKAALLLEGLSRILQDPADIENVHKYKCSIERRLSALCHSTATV

[2] = target: T2, ULK1 (unc-51–like autophagy activating kinase 1); experiment: radiometric […] kinase assay with myelin basic protein, […] ATP

Sequence of AMPK (P54646 whole entry): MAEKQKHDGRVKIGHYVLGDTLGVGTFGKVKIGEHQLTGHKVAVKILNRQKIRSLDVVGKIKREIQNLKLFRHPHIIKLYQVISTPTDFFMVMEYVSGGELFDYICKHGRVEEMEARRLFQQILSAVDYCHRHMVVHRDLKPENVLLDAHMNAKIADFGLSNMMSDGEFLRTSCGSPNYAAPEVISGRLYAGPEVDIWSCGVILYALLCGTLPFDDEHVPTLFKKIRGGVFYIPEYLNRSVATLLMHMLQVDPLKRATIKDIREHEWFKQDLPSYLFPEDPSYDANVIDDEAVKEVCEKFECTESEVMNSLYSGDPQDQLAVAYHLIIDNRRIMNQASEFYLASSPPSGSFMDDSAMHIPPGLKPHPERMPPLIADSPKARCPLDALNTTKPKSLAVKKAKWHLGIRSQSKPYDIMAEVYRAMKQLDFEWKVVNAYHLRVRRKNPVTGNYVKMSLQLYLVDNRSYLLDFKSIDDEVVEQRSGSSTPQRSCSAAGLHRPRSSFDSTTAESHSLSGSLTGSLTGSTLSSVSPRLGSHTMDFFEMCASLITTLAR
Sequence of AMPK (Q9Y478 2-270 partner): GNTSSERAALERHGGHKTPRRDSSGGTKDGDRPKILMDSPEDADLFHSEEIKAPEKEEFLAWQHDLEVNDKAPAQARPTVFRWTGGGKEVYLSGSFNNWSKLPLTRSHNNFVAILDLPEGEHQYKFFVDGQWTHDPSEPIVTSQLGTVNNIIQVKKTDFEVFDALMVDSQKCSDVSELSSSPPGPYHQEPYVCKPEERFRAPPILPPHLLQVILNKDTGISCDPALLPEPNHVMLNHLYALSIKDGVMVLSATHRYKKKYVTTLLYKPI
Sequence of AMPK (P54619 whole entry partner): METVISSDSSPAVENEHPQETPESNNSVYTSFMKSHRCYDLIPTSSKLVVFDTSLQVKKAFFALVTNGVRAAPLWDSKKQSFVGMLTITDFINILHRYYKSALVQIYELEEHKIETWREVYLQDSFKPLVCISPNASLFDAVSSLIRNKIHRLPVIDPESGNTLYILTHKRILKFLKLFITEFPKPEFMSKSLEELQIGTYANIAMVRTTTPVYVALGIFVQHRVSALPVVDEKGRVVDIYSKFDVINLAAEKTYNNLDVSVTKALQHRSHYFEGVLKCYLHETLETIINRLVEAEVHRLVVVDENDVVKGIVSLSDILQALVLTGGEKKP

| Compound | inhibition at 1 µM (TANK-binding kinase 1) [%] | inhibition at 1 µM (AMPK) [%] | inhibition at 1 µM [1] [%] | inhibition at 1 µM (ULK2; read-out: % inhibition at 1 μM) [%] | IC50 [2] [nM] | % inhibition at 1 μM (ULK2) |
| --- | --- | --- | --- | --- | --- | --- |
| CN1CCc2cc(Nc3ncc(C4CC4)c(NCCCNC(=O)C4CCC4)n3)ccc2C1 [MRT68921] | > 90 | > 90 | > 90 | > 90 | – | – |
| MRT403 | – | – | – | – | 1.6 | > 90 |
